Assay results published in patent US12461089B2, “Olfactory receptor involved in the perception of musk fragrance and the use thereof” (ChemoSensoryX Biosciences SA, priority 2017, dated 2025).
Positions count from the first letter of the chain named. Where two headings read alike, the source gives them in different places. Values belong to the molecule of their own block, whether it stands above or below them.

What was measured:
Type in all cases: cell-based
OR5A2_variant 1 = molecular target: T1, OR5A2_variant 1 (Homo sapiens, UniProt Q8NGI9); experiment: Luciferase reporter concentration-response analysis on OR5A2_variant 1
T1 construct: expressed in transfected cells; host or cells: HEK293T-RTP1A1/RTP2
T1 sequence (Q8NGI9 1-324): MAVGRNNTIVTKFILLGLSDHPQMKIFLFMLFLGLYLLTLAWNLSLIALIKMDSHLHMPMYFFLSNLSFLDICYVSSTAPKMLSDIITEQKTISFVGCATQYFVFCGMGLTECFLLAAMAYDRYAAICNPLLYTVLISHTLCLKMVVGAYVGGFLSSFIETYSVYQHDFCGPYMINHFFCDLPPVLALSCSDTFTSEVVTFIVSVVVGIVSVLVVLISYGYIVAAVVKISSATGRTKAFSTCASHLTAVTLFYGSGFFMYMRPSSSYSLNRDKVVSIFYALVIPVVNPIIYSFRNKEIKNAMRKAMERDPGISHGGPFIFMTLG
Procedure: (§1) HEK293T-RTP1A1/RTP2 cells were maintained in minimal essential medium (EMEM, Lonza) containing 10% fetal bovine serum (M10). These cells were generated by transfecting HEK293T with an expression vector containing the sequences of the chaperone proteins RTP1A1 and RTP2 and a resistance gene to puromycin, using Lipofectamine 2000.
(§2) Odorant molecules were diluted at a concentration of 1 mole/liter (M) into dimethyl sulfoxide (DMSO) to generate stock solutions.
(§3) For concentration-response analysis, serial dilutions of the tested molecules were prepared from stock solutions in EMEM plated into 96-well plates.
(§4) For the initial deorphanisation screening and dose-response analysis, a Luciferase-based gene reporter assay (Promega, Leiden, The Nederlands) was used. Briefly, cells were platted on Poly-D-lysine-coated 96-well and transfected with a plasmid containing the CRE-luciferase and a plasmid containing the olfactory receptor. Sixteen hours after transfection, the culture medium was replaced by serum-free EMEM containing the tested compounds at a determined concentration. After four hours of incubation at 37° C. degree, cells were lysed and processed for luminescence measurement. Luminescene emission was recorded. Results were expressed as luciferase activity (Relative […] Unit (RLU)) or as percentage of the response induced by 10 μM of the adenylate cyclase activator Forskolin. An empty plasmid is used as negative control.
(§5) 35 musk compounds from the four structurally different chemical groups previously described were tested in concentration-response analyses (Table 2). In each experiment, an empty vector was used as negative control (pEFIBRHO). […] Full results including the calculated EC50 are given in Table 2; “non active” represent negative experiments, no activation after testing.

OR5A2_variant 2 = molecular target: T2, OR5A2_variant 2 (Homo sapiens, UniProt Q8NGI9, P172L); experiment: Luciferase reporter concentration-response analysis on haplotype OR5A2_variant 2 (P172L); conditions: CRE-luciferase; empty vector pEFIBRHO as control
T2 construct: (P172L, OR5A2_variant 2); expressed in transfected cells; host or cells: HEK293T-RTP1A1/RTP2
T2 sequence (Q8NGI9 1-324 P172L): T1 sequence (Q8NGI9 1-324) with P172L
Procedure: as §1, §2, §3, §4
OR genes are highly variable, with many alleles resulting in differences in smell perception from person to person. These differences can be attributed to genetic variations like, for example, nucleotide polymorphisms. […] Amino acids alignment of the 2 haplotypes are represented in FIG. 4.
To test if the substitution could impact the musk sensitivity, luciferase assays were performed as described previously after transfection of both OR5A2 variants. Cells were treated with semi-logarithmic serial dilutions of musk compounds from the four structurally different groups described earlier. In each experiment, an empty vector was used as negative control (pEFIBRHO).

chimeric OR5A2_variant 1 = molecular target: T3, chimeric OR5A2_variant 1 (Homo sapiens, UniProt Q8NGI9, F293L/H55R/I289L/M58T); experiment: Luciferase reporter concentration-response analysis on chimeric OR5A2_variant 1; conditions: CRE-luciferase; empty vector pEFIBRHO as control
T3 construct: expressed in transfected cells; host or cells: HEK293T-RTP1A1/RTP2
T3 sequence (Q8NGI9 with tags, fused parts or gaps H55R/M58T/I289L/F293L): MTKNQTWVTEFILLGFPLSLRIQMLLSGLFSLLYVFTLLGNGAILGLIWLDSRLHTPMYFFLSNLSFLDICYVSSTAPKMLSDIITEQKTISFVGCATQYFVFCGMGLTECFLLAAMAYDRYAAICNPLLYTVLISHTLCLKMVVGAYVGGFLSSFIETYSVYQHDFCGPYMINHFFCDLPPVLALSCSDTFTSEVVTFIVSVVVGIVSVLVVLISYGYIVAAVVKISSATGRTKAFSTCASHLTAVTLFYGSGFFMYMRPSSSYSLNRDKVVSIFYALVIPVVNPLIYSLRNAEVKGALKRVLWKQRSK
Procedure: as §1, §2, §3, §4
(§6) To test if the amino acids substitution could impact the musk sensitivity, and specificity and to validate the Krautwurst's model, luciferase assays were performed as described previously after transfection of the chimeric OR5A2_variant 1. Cells were treated with semi-logarithmic serial dilutions of musk compounds from the four structurally different groups described earlier.
In each experiment, an empty vector was used as negative control (pEFIBRHO).

OR2A5 = molecular target: T4, OR2A5 (Homo sapiens, UniProt Q96R48, A202S/A255T/I126V); experiment: Luciferase reporter concentration-response analysis on OR2A5; conditions: CRE-luciferase
T4 construct: expressed in transfected cells; host or cells: HEK293T-RTP1A1/RTP2
T4 sequence (Q96R48 1-311 I126V/A202S/A255T): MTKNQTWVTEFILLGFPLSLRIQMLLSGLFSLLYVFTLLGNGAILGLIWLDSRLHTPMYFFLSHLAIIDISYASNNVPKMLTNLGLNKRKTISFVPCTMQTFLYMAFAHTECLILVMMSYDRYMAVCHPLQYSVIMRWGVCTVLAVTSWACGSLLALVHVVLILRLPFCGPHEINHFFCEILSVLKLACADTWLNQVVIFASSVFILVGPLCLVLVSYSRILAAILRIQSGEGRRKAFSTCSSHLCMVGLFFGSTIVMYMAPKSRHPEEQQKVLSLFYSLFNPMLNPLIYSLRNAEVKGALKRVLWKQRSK
Procedure: as §1, with “2000. The recombinant cell population, used in these experiments, was selected by adding 10 μg/ml of puromycin into the culture medium and subsequently subcloned (WO 2014/191047 A1).” for “2000.”
as §2, §3, §4
In 1998, Krautwurst and collaborators have provided a model system for the study of ligand specificity and structure-function relationships for olfactory receptors (Krautwurst et al., 1998 Cell 95, 917-26). […] Based on their publication, a chimeric OR5A2_variant 1 olfactory receptor was created containing the TM2-TM7 amino acid sequence of OR5A2_variant 1 flanked by the N-teminal and C-terminal sequence of the olfactory receptor OR2A5 (cf. SEQ ID NO: 12). This chimeric OR5A2_variant 1 receptor shared 86 percent identity with the native OR5A2_variant 1 receptor (FIG. 6A and SEQ ID NO: 10).
as §6

OR5AN1 = molecular target: T5, OR5AN1 (Homo sapiens, UniProt Q8NGI8, E89G); experiment: Luciferase reporter concentration-response analysis on OR5AN1; conditions: concentration-response analysis, luciferase reporter, values given as negative (log) numbers, Non Active = no activation after testing; for EC50: read-out: calculated EC50, OR5AN1 (converted)
T5 construct: expressed in transfected cells; host or cells: HEK293T-RTP1A1/RTP2
T5 sequence (Q8NGI8 1-311 E89G): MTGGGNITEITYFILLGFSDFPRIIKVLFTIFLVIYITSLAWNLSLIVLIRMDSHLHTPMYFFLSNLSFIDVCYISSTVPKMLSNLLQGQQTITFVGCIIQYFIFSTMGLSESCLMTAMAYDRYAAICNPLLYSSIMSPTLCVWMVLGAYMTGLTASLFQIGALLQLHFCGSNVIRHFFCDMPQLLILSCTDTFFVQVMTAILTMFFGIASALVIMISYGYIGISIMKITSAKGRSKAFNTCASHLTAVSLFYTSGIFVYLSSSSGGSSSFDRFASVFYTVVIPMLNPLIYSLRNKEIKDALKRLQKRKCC
Procedure: as §1, with “2000. The recombinant cell population, used in these experiments, was selected by adding 10 μg/ml of puromycin into the culture medium and subsequently subcloned (WO 2014/191047 A1).” for “2000.”
as §2, §3, §4
In these analyses we also included ORs previously described as musk-specific receptors OR5AN1 (SEQ ID n° 7) (WO 2015/020158 A1, Shirasu et al. 2014 Neuron 81, 165-78, Sato-Akuhara N et al. 2016 J Neurosci. 36(16), 4482-91) and OR11A1 (SEQ ID n° 8) (WO 2016/201152 A1). […] Therefore, OR5A1 was included in the analyses. 35 musk compounds from the four structurally different chemical groups previously described were tested in concentration-response analyses (Table 2). In each experiment, an empty vector was used as negative control (pEFIBRHO). […] Full results including the calculated EC50 are given in Table 2; “non active” represent negative experiments, no activation after testing. […]

OR11A1 = molecular target: T6, OR11A1 (Homo sapiens, UniProt Q9GZK7); experiment: Luciferase reporter concentration-response analysis on OR11A1; conditions: concentration-response analysis, luciferase reporter; values given as negative (log) numbers; Non Active = no activation after testing; read-out: calculated EC50, OR11A1 (converted)
T6 construct: expressed in transfected cells; host or cells: HEK293T-RTP1A1/RTP2
T6 sequence (Q9GZK7 1-315): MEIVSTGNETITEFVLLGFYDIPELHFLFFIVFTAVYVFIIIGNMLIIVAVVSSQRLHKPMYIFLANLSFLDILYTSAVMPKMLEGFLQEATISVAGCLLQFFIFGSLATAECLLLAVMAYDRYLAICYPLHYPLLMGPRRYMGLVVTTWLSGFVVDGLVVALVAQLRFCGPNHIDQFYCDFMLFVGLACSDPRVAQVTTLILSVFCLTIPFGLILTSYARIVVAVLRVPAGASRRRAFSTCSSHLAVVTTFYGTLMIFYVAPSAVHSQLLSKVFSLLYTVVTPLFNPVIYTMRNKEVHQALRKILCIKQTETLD
Procedure: as §1, §2, §3, §4, §5
These compounds were tested in concentration-response analysis in luciferase assays, as described previously. In each experiment, an empty vector was used as negative control (pEFIBRHO).

[1] = concentration-response analysis, luciferase reporter, values given as negative (log) numbers, read-out: calculated EC50, OR5A2 (converted)
[2] = concentration-response analysis, luciferase reporter, values given as negative (log) numbers

Molecule: CC1COCc2cc3c(cc21)C(C)(C)C(C)C3(C)C (centres unmarked) [Galaxolide®]
- activation of OR5A2 (OR5A2_variant 1), concentration-response (OR5A2_variant 1; CRE-luciferase, semi-logarithmic serial dilutions, empty vector pEFIBRHO as control): shows dose response curves
- activation of OR5A2_variant 2 (P172L), concentration-response (OR5A2_variant 2): not activated
- activation of chimeric OR5A2_variant 1, concentration-response (chimeric OR5A2_variant 1): shows dose response curves
- activation of OR2A5, concentration-response (OR2A5): but not the OR2A5

- EC50 (OR5A2_variant 1; [1]): 8.32 µM
- EC50 (OR5AN1): 32.4 µM
Molecule: O=C1CCCCCCCCOCCCCCCO1 [Oxalide T]

- calculated EC50, OR5A2 (OR5A2_variant 1; [2]): −4.72
Molecule: Isoambrettolide

Molecule: muscone
- calculated EC50, OR5A2 (OR5A2_variant 1; [2]): −5.25
- calculated EC50, OR5AN1 (OR5AN1): −5.37

- EC50 (OR5A2_variant 1): 29.5 µM
- EC50 (OR5AN1): 309 µM
Molecule: CC1CC(C)(C)C2=C(CC3(C)OC3C2)C1(C)C (centres unmarked) [malaxone]

Molecule: CC1COCc2cc3c(cc21)C(C)(C)C(C)C3(C)C (centres unmarked) [Galaxolide ®]
- EC50 (OR5A2_variant 1; [1]): 1.05 µM

Molecule: CC(=O)c1cc(C(C)(C)C)cc2c1CCC2(C)C [crysolide]
- EC50 (OR5A2_variant 1; [1]): 22.4 µM
- EC50 (OR5AN1): 120 µM

- EC50 (OR5A2_variant 1): 16.2 µM
- EC50 (OR5AN1): 66.1 µM
Molecule: O=C1CCCCCCCCC/C=C/CCCO1 [Habanolide]

- calculated EC50, OR5A2 (OR5A2_variant 1; [2]): −5.17
- calculated EC50, OR5AN1 (OR5AN1): −4.68
Molecule: ω-6-Hexadecen- lactone

Molecule: COc1c(C(C)(C)C)cc([N+](=O)[O-])c(C)c1[N+](=O)[O-] [Musk Ambrette, 2,6-dinitro-3-methoxy-4-tert-butyltoluene]
- EC50 (OR5A2_variant 1; [1]): 8.71 µM
- EC50 (OR5AN1): 692 µM

Molecule: Cc1c([N+](=O)[O-])cc2c(c1[N+](=O)[O-])C(C)(C)CC2(C)C [Moskene, 1,1,3,3,5-pentamethyl-4,6-dinitro-2H-indene]
- EC50 (OR5A2_variant 1; [1]): 1.86 µM

Molecule: CC(=O)c1cc2c(cc1C)C(C)(C)C(C)CC2(C)C (centres unmarked) [Tonalide ®]
- EC50 (OR5A2_variant 1; [1]): 0.759 µM
- EC50 (OR11A1): 18.2 µM
